Test results taken from ChEMBL document CHEMBL4152235, “Synthesis, anionophoric activity and apoptosis-inducing bioactivity of benzimidazolyl-based transmembrane anion transporters” (Eur J Med Chem, 2018).
Active and inactive are the calls of the source. The rule behind the calls is not given here.

Key:
[1] = Binding affinity to chloride ion assessed as 1:1 compound-Cl- complex formation at 4.1 mM using tetra(n-butyl)ammonium chloride by ESI MS spectrometric method
[2] = Binding affinity to chloride ion at 1.5 x 10^-5M using tetra(n-butyl)ammonium chloride measured after 5 mins by spectrophotometric titration method
[3] = Ionophoric activity across pyranine dye encapsulated pH 7 egg yolk L-alpha-phosphatidylcholine-based liposomal membranes assessed as chloride ion transport by measuring induction of pH discharge after 20 mins in presence of NaCl loaded external vesicles by fluorescence method
[4] = Ionophoric activity across pyranine dye encapsulated pH 7 egg yolk L-alpha-phosphatidylcholine-based liposomal membranes assessed as chloride ion transport by measuring initial rate constant for induction of pH discharge at 0.0625 mol% after 20 mins in presence of NaCl loaded external vesicles by fluorescence method (reference value: 5.03 +/- 1.02 10^-3/min)
[5] = Ionophoric activity across pyranine dye encapsulated pH 7 egg yolk L-alpha-phosphatidylcholine-based liposomal membranes assessed as chloride ion transport by measuring initial rate constant for induction of pH discharge at 0.1250 mol% after 20 mins in presence of NaCl loaded external vesicles by fluorescence method (reference value: 5.03 +/- 1.02 10^-3/min)
[6] = Ionophoric activity across pyranine dye encapsulated pH 7 egg yolk L-alpha-phosphatidylcholine-based liposomal membranes assessed as chloride ion transport by measuring initial rate constant for induction of pH discharge at 0.2500 mol% after 20 mins in presence of NaCl loaded external vesicles by fluorescence method (reference value: 5.03 +/- 1.02 10^-3/min)
[7] = Ionophoric activity across pyranine dye encapsulated pH 7 egg yolk L-alpha-phosphatidylcholine-based liposomal membranes assessed as chloride ion transport by measuring initial rate constant for induction of pH discharge at 0.5 mol% after 20 mins in presence of NaCl loaded external vesicles by fluorescence method (reference value: 5.03 +/- 1.02 10^-3/min)
[8] = Ionophoric activity across pyranine dye encapsulated pH 7 egg yolk L-alpha-phosphatidylcholine-based liposomal membranes assessed as chloride ion transport by measuring initial rate constant for induction of pH discharge at 1.0 mol% after 20 mins in presence of NaCl loaded external vesicles by fluorescence method (reference value: 5.03 +/- 1.02 10^-3/min)
[9] = Ionophoric activity across lucigenin probe encapsulated pH 7 egg yolk L-alpha-phosphatidylcholine-based large unilamellar vesicles loaded with NaNO3 assessed as chloride ion efflux at 0.0625 to 1 mol% after 20 mins in presence of NaCl loaded external vesicles by fluorescence method
[10] = Ionophoric activity across pyranine dye encapsulated pH 7 egg yolk L-alpha-phosphatidylcholine-based liposomal membranes assessed as chloride ion transport by measuring induction of pH discharge after 20 mins in presence of NaCl loaded external vesicles by fluorescence method relative to m-Bimbe
[11] = Ionophoric activity across pyranine dye encapsulated pH 7 egg yolk L-alpha-phosphatidylcholine-based liposomal membranes assessed as chloride ion transport by measuring induction of pH discharge at 0.25 mol% after 20 mins in presence of LiCl loaded external vesicles by fluorescence method
[12] = Ionophoric activity across pyranine dye encapsulated pH 7 egg yolk L-alpha-phosphatidylcholine-based liposomal membranes assessed as chloride ion transport by measuring induction of pH discharge at 0.25 mol% after 20 mins in presence of NaCl loaded external vesicles by fluorescence method
[13] = Ionophoric activity across pyranine dye encapsulated pH 7 egg yolk L-alpha-phosphatidylcholine-based liposomal membranes assessed as chloride ion transport by measuring induction of pH discharge at 0.25 mol% after 20 mins in presence of KCl loaded external vesicles by fluorescence method
[14] = Ionophoric activity across pyranine dye encapsulated pH 7 egg yolk L-alpha-phosphatidylcholine-based liposomal membranes assessed as chloride ion transport by measuring induction of pH discharge at 0.25 mol% after 20 mins in presence of RbCl loaded external vesicles by fluorescence method
[15] = Ionophoric activity across pyranine dye encapsulated pH 7 egg yolk L-alpha-phosphatidylcholine-based liposomal membranes assessed as chloride ion transport by measuring induction of pH discharge at 0.25 mol% after 20 mins in presence of CsCl loaded external vesicles by fluorescence method
[16] = Ionophoric activity across pyranine dye encapsulated pH 7 egg yolk L-alpha-phosphatidylcholine-based liposomal membranes assessed as iodide ion transport by measuring induction of pH discharge at 0.25 mol% after 20 mins in presence of NaI loaded external vesicles by fluorescence method
[17] = Ionophoric activity across pyranine dye encapsulated pH 7 egg yolk L-alpha-phosphatidylcholine-based liposomal membranes assessed as nitrate ion transport by measuring induction of pH discharge at 0.25 mol% after 20 mins in presence of NaNO3 loaded external vesicles by fluorescence method
[18] = Ionophoric activity across pyranine dye encapsulated pH 7 egg yolk L-alpha-phosphatidylcholine-based liposomal membranes assessed as bromide ion transport by measuring induction of pH discharge at 0.25 mol% after 20 mins in presence of NaBr loaded external vesicles by fluorescence method
[19] = Ionophoric activity across lucigenin probe encapsulated pH 7 egg yolk L-alpha-phosphatidylcholine-based large unilamellar vesicles loaded with Na2SO4 assessed as chloride ion efflux at 1 mol% after 20 mins in presence of NaCl loaded external vesicles by fluorescence method
[20] = Ionophoric activity across lucigenin probe encapsulated pH 7 egg yolk L-alpha-phosphatidylcholine-based large unilamellar vesicles loaded with Na2SO4 assessed as chloride ion efflux at 1 mol% after 20 mins in presence of NaCl/Na2SO4 loaded external vesicles by fluorescence method
[21] = Ionophoric activity across pyranine dye encapsulated pH 7 POPC-cholesterol-based liposomal membranes assessed as chloride ion transport by measuring induction of pH discharge at 1 mol% after 20 mins in presence of NaCl loaded external vesicles by fluorescence method
[22] = system: HeLa; assay: Cytotoxicity against human HeLa cells assessed as reduction in cell viability at 50 uM after 48 hrs by MTT assay relative to control; assay type: functional
[23] = system: A549; assay: Cytotoxicity against human A549 cells assessed as reduction in cell viability at 50 uM after 48 hrs by MTT assay relative to control; assay type: functional; settings: A549, 48 h
[24] = system: MCF7; assay: Cytotoxicity against human MCF7 cells assessed as reduction in cell viability at 50 uM after 48 hrs by MTT assay relative to control; assay type: functional; settings: MCF7, 48 h
[25] = system: HepG2; assay: Cytotoxicity against human HepG2 cells assessed as reduction in cell viability at 50 uM after 48 hrs by MTT assay relative to control; assay type: functional; settings: HepG2, 48 h
[26] = Ionophoric activity across pyranine dye encapsulated pH 7 egg yolk L-alpha-phosphatidylcholine-based liposomal membranes assessed as chloride ion transport by measuring initial rate constant for induction of pH discharge at 4.88 x 10^-4 mol% after 20 mins in presence of NaCl loaded external vesicles by fluorescence method (reference value: 5.03 +/- 1.02 10^-3/min)
[27] = Ionophoric activity across pyranine dye encapsulated pH 7 egg yolk L-alpha-phosphatidylcholine-based liposomal membranes assessed as chloride ion transport by measuring initial rate constant for induction of pH discharge at 9.77 x 10^-4 mol% after 20 mins in presence of NaCl loaded external vesicles by fluorescence method (reference value: 5.03 +/- 1.02 10^-3/min)
[28] = Ionophoric activity across pyranine dye encapsulated pH 7 egg yolk L-alpha-phosphatidylcholine-based liposomal membranes assessed as chloride ion transport by measuring initial rate constant for induction of pH discharge at 1.95 x 10^-3 mol% after 20 mins in presence of NaCl loaded external vesicles by fluorescence method (reference value: 5.03 +/- 1.02 10^-3/min)
[29] = Ionophoric activity across pyranine dye encapsulated pH 7 egg yolk L-alpha-phosphatidylcholine-based liposomal membranes assessed as chloride ion transport by measuring initial rate constant for induction of pH discharge at 3.91 x 10^-3 mol% after 20 mins in presence of NaCl loaded external vesicles by fluorescence method (reference value: 5.03 +/- 1.02 10^-3/min)
[30] = Ionophoric activity across pyranine dye encapsulated pH 7 egg yolk L-alpha-phosphatidylcholine-based liposomal membranes assessed as chloride ion transport by measuring initial rate constant for induction of pH discharge at 7.81 x 10^-3 mol% after 20 mins in presence of NaCl loaded external vesicles by fluorescence method (reference value: 5.03 +/- 1.02 10^-3/min)
[31] = Ionophoric activity across pyranine dye encapsulated pH 7 egg yolk L-alpha-phosphatidylcholine-based liposomal membranes assessed as chloride ion transport by measuring initial rate constant for induction of pH discharge at 1.56 x 10^-2 mol% after 20 mins in presence of NaCl loaded external vesicles by fluorescence method (reference value: 5.03 +/- 1.02 10^-3/min)
[32] = Ionophoric activity across pyranine dye encapsulated pH 7 egg yolk L-alpha-phosphatidylcholine-based liposomal membranes assessed as chloride ion transport by measuring induction of pH discharge at 1.95 x 10^-3 mol% after 20 mins in presence of LiCl loaded external vesicles by fluorescence method
[33] = Ionophoric activity across pyranine dye encapsulated pH 7 egg yolk L-alpha-phosphatidylcholine-based liposomal membranes assessed as chloride ion transport by measuring induction of pH discharge at 1.95 x 10^-3 mol% after 20 mins in presence of NaCl loaded external vesicles by fluorescence method
[34] = Ionophoric activity across pyranine dye encapsulated pH 7 egg yolk L-alpha-phosphatidylcholine-based liposomal membranes assessed as chloride ion transport by measuring induction of pH discharge at 1.95 x 10^-3 mol% after 20 mins in presence of KCl loaded external vesicles by fluorescence method
[35] = Ionophoric activity across pyranine dye encapsulated pH 7 egg yolk L-alpha-phosphatidylcholine-based liposomal membranes assessed as chloride ion transport by measuring induction of pH discharge at 1.95 x 10^-3 mol% after 20 mins in presence of RbCl loaded external vesicles by fluorescence method
[36] = Ionophoric activity across pyranine dye encapsulated pH 7 egg yolk L-alpha-phosphatidylcholine-based liposomal membranes assessed as chloride ion transport by measuring induction of pH discharge at 1.95 x 10^-3 mol% after 20 mins in presence of CsCl loaded external vesicles by fluorescence method
[37] = Ionophoric activity across pyranine dye encapsulated pH 7 egg yolk L-alpha-phosphatidylcholine-based liposomal membranes assessed as iodide ion transport by measuring induction of pH discharge at 1.95 x 10^-3 mol% after 20 mins in presence of NaI loaded external vesicles by fluorescence method
[38] = Ionophoric activity across pyranine dye encapsulated pH 7 egg yolk L-alpha-phosphatidylcholine-based liposomal membranes assessed as nitrate ion transport by measuring induction of pH discharge at 1.95 x 10^-3 mol% after 20 mins in presence of NaNO3 loaded external vesicles by fluorescence method
[39] = Ionophoric activity across pyranine dye encapsulated pH 7 egg yolk L-alpha-phosphatidylcholine-based liposomal membranes assessed as bromide ion transport by measuring induction of pH discharge at 1.95 x 10^-3 mol% after 20 mins in presence of NaBr loaded external vesicles by fluorescence method
[40] = Ionophoric activity across lucigenin probe encapsulated pH 7 egg yolk L-alpha-phosphatidylcholine-based large unilamellar vesicles loaded with Na2SO4 assessed as chloride ion efflux at 1.56 x 10^-2mol% after 20 mins in presence of NaCl loaded external vesicles by fluorescence method
[41] = Ionophoric activity across lucigenin probe encapsulated pH 7 egg yolk L-alpha-phosphatidylcholine-based large unilamellar vesicles loaded with Na2SO4 assessed as chloride ion efflux at 1.56 x 10^-2mol% after 20 mins in presence of NaCl/Na2SO4 loaded external vesicles by fluorescence method
[42] = Ionophoric activity across pyranine dye encapsulated pH 7 POPC-cholesterol-based liposomal membranes assessed as chloride ion transport by measuring induction of pH discharge at 7.81 x 10^-3mol% after 20 mins in presence of NaCl loaded external vesicles by fluorescence method
[43] = system: HeLa; assay: Cytotoxicity against human HeLa cells assessed as reduction in cell viability after 48 hrs by MTT assay; assay type: functional, cell-based
[44] = system: A549; assay: Cytotoxicity against human A549 cells assessed as reduction in cell viability after 48 hrs by MTT assay; assay type: functional, cell-based; settings: A549, 48 h
[45] = system: MCF7; assay: Cytotoxicity against human MCF7 cells assessed as reduction in cell viability after 48 hrs by MTT assay; assay type: functional, cell-based; settings: MCF7, 48 h
[46] = system: HepG2; assay: Cytotoxicity against human HepG2 cells assessed as reduction in cell viability after 48 hrs by MTT assay; assay type: functional, cell-based; settings: HepG2, 48 h
[47] = system: L02; assay: Cytotoxicity against human LO2 cells assessed as reduction in cell viability after 48 hrs by MTT assay; assay type: cell-based; settings: L02, 48 h

In the case of `O=[N+]([O-])c1cc(-c2nc3ccccc3[nH]2)cc(-c2nc3ccccc3[nH]2)c1`, the Activity [1] is reported as “Active”, the Ka [2] is reported as 3.94 ×10³ /M and the Activity [3] is reported as “Dose-dependent effect”. For the same compound, the EC50 [3] was 0.49 mol%, the EC50 ([3]; read-out: EC50) was 6.5 µM and the K [4] was 3.38 ×10⁻² /min. For the same compound, the K [5] was 4.89 ×10⁻² /min, the K [6] was 6.81 ×10⁻² /min and the K [7] was 1.28 ×10⁻¹ /min. The K [8] was 1.61 ×10⁻¹ /min, the Activity [9] was “Active” and the fold change (FC) [10] was 13. The Activity [11] was “Active”, the Activity [12] was “Active” and the Activity [13] was “Active”. For the same compound, the Activity [14] was “Active”, the Activity [15] was “Active” and the Activity [16] was “inactive”. For the same compound, the Activity [17] was “inactive”, the Activity [18] was “inactive” and the Activity [19] was “inactive”. The Activity [20] was “inactive”, the Activity [21] was “inactive” and the inhibition at 50 µM [22] was 42.5%. For the same compound, the inhibition at 50 µM [23] was 45.9%, the inhibition at 50 µM [24] was 48.2% and the inhibition at 50 µM [25] was -2.6%.
In the case of `O=[N+]([O-])c1cc(-c2nc3ccc([N+](=O)[O-])cc3[nH]2)cc(-c2nc3ccc([N+](=O)[O-])cc3[nH]2)c1`, the Activity [1] is reported as “Active”, the Ka [2] is reported as 8.18 ×10³ /M and the Activity [3] is reported as “Dose-dependent effect”. It also gave an EC50 [3] of 2.73 ×10⁻³ mol%, an EC50 ([3]; read-out: EC50) of 0.036 µM and a K [26] of 2.43 ×10⁻² /min. It also gave a K [27] of 6.25 ×10⁻² /min, a K [28] of 8.98 ×10⁻² /min and a K [29] of 1.35 ×10⁻² /min. The K [30] was 1.81 ×10⁻¹ /min, the K [31] was 1.99 ×10⁻¹ /min and the fold change (FC) [10] was 2370. The Activity [32] was “Active”, the Activity [33] was “Active” and the Activity [34] was “Active”. For the same compound, the Activity [35] was “Active”, the Activity [36] was “Active” and the Activity [37] was “inactive”. For the same compound, the Activity [38] was “inactive”, the Activity [39] was “inactive” and the Activity [40] was “inactive”. The Activity [41] was “inactive”, the Activity [42] was “inactive” and the inhibition at 50 µM [22] was 94.1%. For the same compound, the inhibition at 50 µM [23] was 78.7%, the inhibition at 50 µM [24] was 94.7% and the inhibition at 50 µM [25] was 81.3%. The IC50 [43] was 1.2 to 1.3 µM, the IC50 [44] was 13.6 µM and the IC50 [45] was 1.2 µM. For the same compound, the IC50 [46] was 11.1 µM and the IC50 [47] was 44.9 µM.
